The text below walks through data of patent US10780069B2, “Use of GC-1 in transplant related population” (University of Pittsburgh—Of the Commonwealth System of …, priority 2017, dated 2020).

A short description of series [1]: Serum ALT/bilirubin and hepatic histology after GC-1 or T3. The conditions noted are these: T3 (4 mg/Kg of diet) or GC-1 (5 mg/Kg of diet) chow 8 days, vs basal diet. The format is in vivo, mice. As for the experimental part: (§1) All studies on mice were performed in strict accordance with Guidelines. Eight-week old male C57BL/6 male mice (Jackson/Charles River) were maintained on a standard laboratory basal diet (Test Diet) (n=4), or fed a T3-supplemented diet (4 mg/Kg of diet, Sigma Chemicals, St. Louis Mo.) (n=4). GC-1 was administered to the eight week-old male C57BL/6 male mice either via GC-1-supplemented diet (5 mg/Kg of diet, Medchem Express) for 8 days (n=4) or via daily intraperitoneal injections (IP) of GC-1 dissolved in DMSO (0.3 mg/kg/dose) for 8 days (n=7). As a control group for injections, DMSO alone was injected daily intraperitoneal (IP) for 8 days (n=5). Mice were sacrificed 24 hours after the last injection.

The subject of series [2] is hepatocytes. The series is described as follows: T3- or GC-1-supplemented diet in wild type mice: hepatocyte proliferation. Format: in vivo. As for the experimental part:
as §1
(§2) To label dividing hepatocytes, BrdU (5-bromodeoxyuridine) dissolved in drinking water (1 mg/ml) was given to all animals throughout the experiment period. The animals were given food and water ad libitum with a 12-hour light/dark daily cycle.
(§3) Four micron liver sections were analyzed by immunohistochemistry for β-Catenin (BD Biosciences, San Jose, Calif.), Cyclin-D1 (Thermo-Scientific, Fremont, Calif.) and PCNA (Santa Cruz Biotechnology, Dallas, Tex.). Briefly, formalin-fixed sections were deparaffinized in graded xylene and alcohol. Endogenous peroxidase was inactivated using 3% hydrogen peroxide (Sigma). For β-Catenin, Cyclin-D1 staining, slides were microwaved in Citrate buffer followed by blocking with Superblock for 10 minutes. Sections were then incubated with secondary anti-mouse (for β-catenin) or anti-rabbit (for Cyclin-D1) horseradish peroxidase-conjugated antibody for 30 minutes.
(§4) Bromodeoxyuridine (BrdU) was stained with mouse antibody (Becton Dickinson) as previously described (Fanti et al. (2014) Hepatology 59, 2309-2320). Briefly, tissue sections were deparaffinized, exposed to 0.3% hydrogen peroxide in deionized water for 10 minutes to block endogenous peroxidase, treated with 2N HCl, incubated with trypsin 0.1% for 20 minutes and then with normal goat serum for 20 minutes at room temperature. Sections were then incubated overnight in cold room with anti-BrdU monoclonal antibody, followed by biotinylated goat anti-mouse IgG. DAB kit was then applied, and sections were counterstained with hematoxylin. A small segment of intestine was included from each mouse as a positive control for the staining. For quantification of BrdU staining, at least 10 high power fields (400× or 600×) fields each from at least three biological replicates were counted as indicated in the figures. Statistical analysis was performed as described below.

Series [3] has as its system preneoplastic hepatocytes. The conditions noted are these: resistant-hepatocyte model of hepatocarcinogenesis (T3, rats); Ledda-Columbano 2000, Perra 2009; cited from earlier work.
Series [4] has as its system hepatocytes. The series is described as follows: T3 or GC-1 in LRP5-6 LKO mice and littermate controls. Format: in vivo. As for the experimental part: Eight to 10 week-old LRP5-6-LKO were obtained from breeding homozygous LRP5-6 double floxed mice with albumin-cre transgenic mice as described previously (Yang et al. (2014) Hepatology 60, 964-976). LRP5-6-LKO or sex matched littermate controls were given either T3-supplemented diet (n=4), basal diet (n=3), IP GC-1 (n=3) or IP DMSO (n=3). Mice were sacrificed at 24 hours after the last IP injection.
To label dividing hepatocytes, BrdU (5-bromodeoxyuridine) dissolved in drinking water (1 mg/ml) was given to all animals throughout the experiment period. The animals were given food and water ad libitum with a 12-hour light/dark daily cycle. […]
(§5) Protein extraction from frozen liver tissue and western blot analysis were performed as previously described (Fanti et al., (2014) Hepatology 59, 2309-2320). For protein extraction, a small amount of frozen liver tissue was obtained (over dry ice) and was homogenized using RIPA buffer with protease and phosphatase inhibitor cocktail (Sigma, St. Louis, Mo.). Samples were transferred to a 1.5 ml tube on ice, and spun in cold room centrifuge at 14,000 RPM for 5 minutes. Pellet was then discarded and sample was aliquoted and stored at −80 C for use. Fifty micrograms of the proteins were resolved by sodium dodecyl sulfate-polyacrylamide gel electrophoresis analysis, and transferred to immobilon-polyvinylidene difluoride membranes.
The primary antibodies used were against β-catenin (BD Biosciences); pSer675-β-catenin, pSer552-β-catenin, Active-β-catenin (Cell-Signaling), Cyclin-D1 (Thermo-Scientific), and β-Actin (Sigma). Dilutions of primary antibody were done according to manufacturer recommendations (1:1000 for all except Cyclin-D1 which was 1:200). Horseradish peroxidase-conjugated secondary antibodies used were goat anti-mouse (1:20,000) and goat anti-rabbit (1:10,000) (Millipore). The proteins were detected by Super-Signal West Pico Chemiluminescense Substrate (Thermo Scientific, Rockford Ill.) and visualized by autoradiography. […]

Series [5] concerns hepatocytes. Description: Partial hepatectomy after pretreatment with T3 or GC-1 supplemented diet. Format: in vivo, mice. As for the experimental part:
as §2
After 7 days of receiving T3 supplemented diet (n=3) or GC-1 diet (n=3) or standard basal mouse chow (n=3), C57BL/6 male mice underwent partial hepatectomy as described previously (Tan et al. (2006) Gastroenterology 131, 1561-1572). Anesthesia was provided with inhaled Isoflurane. The animals were sacrificed 24 hours post hepatectomy, after Isoflurane anesthesia and cervical dislocation. Serum and liver tissue were harvested for further processing.
as §3, §4

The test system of series [6] is hepatocytes. The series is described as follows: GC-1 or T3 in hepatocyte specific β-catenin knockout mice (β-Cat LKO) and littermate controls. Format: in vivo. Here is the method: Eight to 10 week old male hepatocyte specific β-catenin knockout mice (β-cat-LKO) or sex-matched littermate controls obtained from breeding homozygous floxed β-catenin mice and albumin-cre transgenic mice (as described elsewhere (Tan et al., (2006) Gastroenterology 131, 1561-1572)) were given 8 daily IP injections of GC-1 (n=4) or DMSO (n=4) and harvested around 24 hours after the last injection.
as §2, §3, §4, §5
The primary antibodies used were against β-catenin (BD Biosciences); pSer675-β-catenin, pSer552-β-catenin, Active-β-catenin (Cell-Signaling), Cyclin-D1 (Thermo-Scientific), and β-Actin (Sigma). Dilutions of primary antibody were done according to manufacturer recommendations (1:1000 for all except Cyclin-D1 which was 1:200). Horseradish peroxidase-conjugated secondary antibodies used were goat anti-mouse (1:20,000) and goat anti-rabbit (1:10,000) (Millipore). The proteins were detected by Super-Signal West Pico Chemiluminescense Substrate (Thermo Scientific, Rockford Ill.) and visualized by autoradiography.
Total RNA was extracted by homogenizing frozen liver tissues in Trizol reagent (Invitrogen, Carlsbad, Calif.) from GC-1-injected β-Cat LKO (n=4) and littermate control mice (n=4); and GC-1-injected LRP5-6 LKO (n=3) and littermate control mice (n=3). […]

A further series relates to liver regeneration. As to conditions: rats; Columbano et al. (2008); cited from earlier work.

`N[C@@H](Cc1cc(I)c(Oc2ccc(O)c(I)c2)c(I)c1)C(=O)O` [T3, Triiodothyronine]: the “histological changes in the livers” value in series [1] is recorded as “no histological changes”. Further, the BrdU incorporation result in the series on hepatocytes [2] (T3 (4 mg/Kg of diet) or GC-1 (5 mg/Kg of diet) chow 8 days, vs basal diet) was “increased BrdU incorporation”. In addition, the “cyclin-D1 staining in hepatocytes” value in the series with hepatocytes [2] (T3 diet or IP GC-1, 8 days, vs respective controls) is “notably increased cyclin-D1 staining”. Moreover, the “cyclin-D1 staining in hepatocytes” value in the series on hepatocytes [2] (T3 or GC-1 supplemented diet 8 days, vs basal diet) is “increased in both groups”. The “BrdU-positive hepatocytes, T3 diet versus IP GC-1” value in the series with hepatocytes [2] (T3 supplemented diet versus IP GC-1, 8 days, p<0.001 between groups) is “highest proliferation”. For the same molecule, the “effect on preneoplastic lesions / carcinogenic process” value in series [3] is “accelerate remodeling of chemically-induced preneoplastic lesions”. Also, the “pSer675-β-catenin levels, Western blot” value with hepatocytes [4] (LRP5-6-LKO and littermate controls) is “comparable or even greater levels”. Further, in the series on hepatocytes [4] (LRP5-6 LKO), the “pSer552-β-catenin levels, Western blot” value is given as “modest increase”. Besides, the “active β-catenin levels” value in the series with hepatocytes [4] (LRP5-6 LKO after T3 or GC-1 feeding vs basal diet) was “no notable differences”. Moreover, in the series on hepatocytes [4] (LRP5-6 LKO vs controls), the “cyclin-D1 protein and mRNA expression” value is “decreased”; the “numbers of cyclin-D1-positive hepatocytes (immunohistochemistry)” value is “notably decreased”; the “total β-catenin levels” value is on record as “comparable levels”. In the series with hepatocytes [4] (LRP5-6 LKO vs controls, T3 diet 4 mg/Kg of diet or GC-1 0.3 mg/Kg/dose IP 8 days), the “number of BrdU-labeled hepatocyte nuclei” value was “notable decrease”. The “active β-catenin levels in liver lysates” value in the series on hepatocytes [4] (control mice fed T3 or GC-1 diet for 8 days vs basal diet) is listed as “dramatic increase”. Moreover, the “nuclear cyclin-D1 immunohistochemistry at 24 hours after hepatectomy” value in the series on hepatocytes [5] (24 hours after hepatectomy) was “panlobular distribution”. In addition, in the series with hepatocytes [5] (24 hours post hepatectomy), the “hepatocyte proliferative response post hepatectomy, T3 versus GC-1” value is recorded as “significantly greater hepatocyte proliferative response than GC-1”. Further, the “BrdU positive hepatocyte nuclei at 24 hours after hepatectomy” value in the series on hepatocytes [5] (diet pretreatment, vs basal diet) was “pronounced increase”. In addition, the “increase in hepatocyte proliferation over the 24-hour liver regeneration period” value with hepatocytes [5] (pre-hepatectomy vs 24 hour-post hepatectomy, same animals, all three mice) was “around 2 fold”. Besides, the “cyclin-D1 immunohistochemistry in resected lobes at time of hepatectomy” value with hepatocytes [5] (pretreatment livers) is given as “expansion of cyclin-D1 positive hepatocytes in the midzonal area”. The “BrdU-positive hepatocytes in resected lobes at time of hepatectomy” value in the series with hepatocytes [5] (seven-day pretreatment, vs basal diet) was “increased BrdU-positive hepatocytes”. For the same molecule, the “active β-catenin, Western blot” value in the series on hepatocytes [6] (β-Cat LKO after T3 or GC-1 treatment) is given as “very faint signal”. Moreover, the “P-Ser675-β-catenin, Western blot” value with hepatocytes [6] (β-Cat LKO vs controls treated with GC-1 or T3) is on record as “absent”. In the series with liver regeneration, the “liver regeneration after partial hepatectomy” value is on record as “regenerative advantage” and the “survival in a 90% hepatectomy model” value is on record as “survival advantage”.
